Results taken from US20080280879A1, “SUBSTITUTED HETEROCYCLIC DERIVATIVES AND THEIR PHARMACEUTICAL USE AND COMPOSITIONS” (priority 2007, published 2008).
Converted amounts (≈) assume the structure as drawn.

Columns and labels:
Assay type in all cases: cell-based, Staphylococcus aureus
Staph aureus 1095 MRSA = assay: MIC, microtiter broth dilution (CLSI M7-A7), Assay 1, Table 12 column A, no serum; details: Staphylococcus aureus, MRSA, Assay 1, no serum
Method in brief: (§1)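 Broth microdilution in microtiter trays per CLSI M7-A7, interpreted per M100-S16; MIC (μg/ml) is the lowest concentration preventing macroscopically visible growth. Compounds were dissolved in DMSO at 10 mg/ml. Serum-containing runs used Mueller-Hinton Broth with 50% pooled inactivated human serum; repeated runs are reported as geometric means.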

Staph aureus 2812 = assay: MIC, microtiter broth dilution (CLSI M7-A7), Assay 1, Table 12 column E, no serum; details: Staphylococcus aureus, 2812, Staph aureus 2812, Assay 1, no serum
Method in brief: as §1

Staph aureus 2811 = assay: MIC, microtiter broth dilution (CLSI M7-A7), Assay 1, Table 12 column D, no serum; details: Staphylococcus aureus, 2811, Staph aureus 2811, Assay 1, no serum
Method in brief: as §1

Staph aureus 1146 [1] = assay: MIC, microtiter broth dilution (CLSI M7-A7), Assay 1, Table 12 column B, no serum; details: Staphylococcus aureus, 1146, Staph aureus 1146, Assay 1, no serum
Method in brief: as §1

Staph aureus 1146 [2] = assay: MIC in Mueller-Hinton Broth with 50% pooled inactivated human serum, Assay 1, Table 12; details: Staphylococcus aureus, 1146, Staph aureus 1146, Assay 1, 50% human serum; read-out: MIC, column C
Method in brief: as §1

Structure (SMILES) | MIC (Staph aureus 1095 MRSA) | MIC (Staph aureus 2812) | MIC (Staph aureus 2811) | MIC (Staph aureus 1146 [1]) | MIC (Staph aureus 1146 [2])
CNC(CC[C@@H]1CCN(C2CC(c3ccccc3)C2)C[C@@H]1C(=O)O)c1ccnc2ccc(OC)cc12 (stereo partly drawn) [Example 136, (3R,4R)-4-[3-(6-Methoxy-quinolin-4-yl)-3-methylamino-propyl]-1-(3-phenyl-cyclobutyl)-piperidine-3-carboxylic acid] | 8 µg/mL (≈ 16.4 µM) | 8 µg/mL (≈ 16.4 µM) | 4 µg/mL (≈ 8.2 µM) | 4 µg/mL (≈ 8.2 µM) | 4 µg/mL (≈ 8.2 µM)
O=C(O)[C@H]1CN(C2CC(c3cc(F)ccc3F)C2)CC[C@H]1CCC(O)c1c(F)cnc2ccc(O)nc12 (mixture of isomers) [Example 206, (3R,4R)-1-[3-(2,5-difluorophenyl)cyclobutyl]-4-[3-(3-fluoro-6-hydroxy-1,5-naphthyridin-4-yl)-3-hydroxypropyl]piperidine-3-carboxylic acid] | 4 µg/mL | 4 µg/mL | 2 µg/mL | 2 µg/mL | 16 µg/mL
COc1ccc2nccc(C(O)CC[C@@H]3CCN(C4CC(c5ccc(OC)c(OC)c5)C4)C[C@@H]3C(=O)O)c2c1 (stereo partly drawn) [Example 32, (3R,4R)-1-[3-(3,4-dimethoxyphenyl)cyclobutyl]-4-[3-hydroxy-3-(6-methoxyquinolin-4-yl)propyl] piperidine-3-carboxylic acid] | 64 µg/mL (≈ 120 µM) | 64 µg/mL (≈ 120 µM) | 64 µg/mL (≈ 120 µM) | > 64 µg/mL | > 64 µg/mL
COc1ccc2nccc([C@@H](O)CC[C@@H]3CCN(C4CC(c5c(F)cccc5Cl)C4)C[C@@H]3C(=O)O)c2c1 (stereo partly drawn) [Example 63, (3R,4R)-1-[3-(2-chloro-6-fluorophenyl)cyclobutyl]-4-[(3S)-3-hydroxy-3-(6-methoxyquinolin-4-yl)propyl]piperidine-3-carboxylic acid] | 0.125 µg/mL (≈ 0.237 µM) | ≤ 0.0625 µg/mL | ≤ 0.0625 µg/mL | ≤ 0.0625 µg/mL | 2 µg/mL (≈ 3.79 µM)
COCc1noc(C2CC(N3CC[C@@H](CCC(O)c4ccnc5ccc(OC)cc45)[C@@H](C(=O)O)C3)C2)n1 (stereo partly drawn) [Example 169, (3R,4R)-4-[3-hydroxy-3-(6-methoxyquinolin-4-yl)propyl]-1-{3-[3-(methoxymethyl)-1,2,4-oxadiazol-5-yl]cyclobutyl}piperidine-3-carboxylic acid] | > 64 µg/mL | > 64 µg/mL | > 64 µg/mL | > 64 µg/mL | > 64 µg/mL
COc1ccc2ncc(F)c(C(O)CC[C@@H]3CCN(C4CC(c5ccccc5)C4)C[C@@H]3C(=O)O)c2c1 (mixture of isomers) [Example 14, (3R,4R)-4-[3-(3-fluoro-6-methoxyquinolin-4-yl)-3-hydroxypropyl]-1-(3-phenylcyclobutyl)piperidine-3-carboxylic acid] | ≤ 0.0947 µg/mL | ≤ 0.0947 µg/mL | ≤ 0.0947 µg/mL | 0.158 µg/mL | ≤ 0.379 µg/mL
COc1ccc2ncc(Cl)c(CCCC3(C(=O)O)CCN(C4CC(c5c(F)cccc5F)C4)C3)c2c1 (stereo not drawn) [Example 87, 3-[3-(3-chloro-6-methoxyquinolin-4-yl)propyl]-1-[3-(2,6-difluorophenyl)cyclobutyl] pyrrolidine-3-carboxylic acid] | ≤ 0.0625 µg/mL | ≤ 0.0625 µg/mL | ≤ 0.0625 µg/mL | ≤ 0.0625 µg/mL | 8 µg/mL (≈ 15.5 µM)
COc1ccc2nccc(C(O)CC[C@@H]3CCN(C4CC(CC5CCCO5)C4)C[C@@H]3C(=O)O)c2c1 (stereo partly drawn) [Example 52, (3R,4R)-4-[3-hydroxy-3-(6-methoxyquinolin-4-yl)propyl]-1-[3-(tetrahydrofuran-2-ylmethyl)cyclobutyl]piperidine-3-carboxylic acid] | > 64 µg/mL | 32 µg/mL (≈ 66.3 µM) | 8 µg/mL (≈ 16.6 µM) | 16 µg/mL (≈ 33.2 µM) | 16 µg/mL (≈ 33.2 µM)
COc1ccc2nccc(C(N)CC[C@@H]3CCN(C4CC(c5ccccc5)C4)C[C@@H]3C(=O)O)c2c1 (stereo partly drawn) [Example 138, (3R,4R)-4-[3-Amino-3-(6-methoxy-quinolin-4-yl)-propyl]-1-(3-phenyl-cyclobutyl)-piperidine-3-carboxylic acid] | 2 µg/mL (≈ 4.22 µM) | 2 µg/mL (≈ 4.22 µM) | 0.5 µg/mL (≈ 1.06 µM) | 1 µg/mL (≈ 2.11 µM) | 0.5 µg/mL (≈ 1.06 µM)
